From publication PMC8220737, “Molecular docking, chemo-informatic properties, alpha-amylase, and lipase inhibition studies of benzodioxol derivatives” (BMC Chemistry, 2021)
In brackets after ≈: the same amount, converted by molar mass. Several values for one entry are separate records, joined by “and”; a condition that tells them apart may be missing. Identical values can stand only once.

Tests used:
[1] = molecular target: T1, porcine pancreatic lipase (Sus scrofa, UniProt P00591); assay: Anti-lipase activity (PNPB hydrolysis); format: biochemical; settings: for IC50: read-out: IC50 (µg/ml) Lipase (converted); for IC50 (µg/ml) Lipase: five dilutions 40, 100, 200, 300, 400 µg/ml, orlistat positive control
T1 sequence (P00591 1-450): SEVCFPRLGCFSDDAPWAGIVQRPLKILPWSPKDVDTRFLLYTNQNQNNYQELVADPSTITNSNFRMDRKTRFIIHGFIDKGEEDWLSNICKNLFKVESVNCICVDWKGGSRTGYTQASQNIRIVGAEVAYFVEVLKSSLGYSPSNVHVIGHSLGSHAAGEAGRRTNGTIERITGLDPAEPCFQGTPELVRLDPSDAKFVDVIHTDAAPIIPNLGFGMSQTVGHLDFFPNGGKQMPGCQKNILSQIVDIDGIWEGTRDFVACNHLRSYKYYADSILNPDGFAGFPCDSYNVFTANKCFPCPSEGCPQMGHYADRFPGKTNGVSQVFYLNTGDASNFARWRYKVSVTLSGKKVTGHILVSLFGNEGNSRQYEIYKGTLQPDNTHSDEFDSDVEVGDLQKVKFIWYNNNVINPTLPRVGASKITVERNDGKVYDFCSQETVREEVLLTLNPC
Description: A solution of 1 mg/ml of the synthesized compounds was mixed with 10% dimethyl sulfoxide (DMSO) and then diluted with 10% DMSO to produce five dilutions (40, 100, 200, 300, and 400 µg/ml).
A freshly prepared stock solution of pancreatic lipase enzyme was established by suspending this enzyme in 10% DMSO to form 1 mg/ml. Firstly, 25 mg of lipase was suspended in a small amount of 10% DMSO, bringing the volume up to 25 ml in V.F (25 ml), this was then put in a water bath sonicator at 37 °C for 15 min. […] The pancreatic lipase inhibition assay was conducted by adopting the procedure in the references with slight modifications. From each working solution of the synthesized compounds prepared above, 200 µl of the synthesized compounds were taken and put in a separate test tube, then 100 µl of porcine pancreatic lipase (1 mg/ml) was added to it. The resulting mixture was then adjusted to 1000 µl after addition to the 700 µl of Tris–HCl solution, and then it was incubated in a water bath at 37 °C for 15 min. After the incubation, 100 µl of PNPB (p-nitrophenyl butyrate) solution was added to each test tube. This mixture was then incubated again in a water bath at 37 °C for 30 min. A solution characterized as a negative control was constructed without the synthesized compounds, using 100 µl of porcine pancreatic lipase (1 mg/ml) solution mixed with the Tris–HCl solution up to 1 ml after the addition of 900 µl. […] The % inhibition of the synthesized compounds was calculated by using the following equation: Inhibitory lipase%=Ab-As/Ab∗100

[2] = molecular target: T2, porcine pancreatic amylase enzyme (Sus scrofa, UniProt P00690); assay: α-Amylase inhibitory activity (DNSA method); format: biochemical; settings: for IC50 / IC50 (µg/ml) α-amylase: five concentrations 1, 10, 50, 100, 500 µg/ml, acarbose positive control; for potency relative to acarbose, α-amylase: folds more potent than acarbose
T2 construct: purchased Frutarom (UK)
T2 sequence (P00690 16-511): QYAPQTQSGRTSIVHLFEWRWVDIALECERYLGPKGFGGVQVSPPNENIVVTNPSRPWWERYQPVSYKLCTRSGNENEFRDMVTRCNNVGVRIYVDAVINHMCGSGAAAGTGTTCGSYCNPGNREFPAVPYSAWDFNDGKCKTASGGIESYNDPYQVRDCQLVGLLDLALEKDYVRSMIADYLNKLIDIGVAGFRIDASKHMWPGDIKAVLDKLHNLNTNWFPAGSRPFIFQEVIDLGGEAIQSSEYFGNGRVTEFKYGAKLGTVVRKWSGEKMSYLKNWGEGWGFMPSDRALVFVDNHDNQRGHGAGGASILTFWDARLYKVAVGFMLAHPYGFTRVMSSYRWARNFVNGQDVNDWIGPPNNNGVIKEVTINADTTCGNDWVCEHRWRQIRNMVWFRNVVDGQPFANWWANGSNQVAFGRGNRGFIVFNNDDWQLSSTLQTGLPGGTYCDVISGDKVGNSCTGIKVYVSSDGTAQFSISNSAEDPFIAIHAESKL
Excerpt: The in vitro antidiabetic activity of the synthesized compounds was investigated by assessing their α-amylase inhibitory effects. Acarbose was used as a positive control.
The following materials were purchased from Frutarom (UK): β-carotene, porcine pancreatic amylase enzyme solution, starch, dinitrosalicylic acid (DNSA), methanol, trolox, gallic acid, Na2CO3, and acarbose.
The α-amylase inhibitory assessment was based on the Wickramaratne et al. protocol with some slight alterations in some steps. The experimental part was carried out by following the 3,5-dinitrosalicylic acid (DNSA) procedure. Solutions of 20 mm sodium phosphate monobasic and sodium phosphate dibasic buffer involving 6.7 mm sodium chloride (NaH2PO4 and Na2HPO4, both including 6.7 mm NaCl, pH 6.9) were constructed by partially filling the beaker with NaH2PO4 and NaCl solution; the mixture was subjected to a magnetic stirrer. In contrast, the pH was adjusted by inserting a calibrated pH electrode in the solution. Then, the Na2HPO4 and NaCl solution was gradually added until the pH reached 6.9. A weight of 5.36 g of 20 mm Na2HPO4. 7H2O and 0.39 g of 6.7 mm NaCl were dispersed in distilled water to make 1 L and a weight of 2.76 g of NaH2PO4. […] Working solutions with concentrations of 1, 10, 50, 100 and 500 µg/ml were obtained by mixing 0.01, 0.1, 0.5, 1, and 5 ml of our synthesized molecules, respectively, and then diluting them with a buffer of Na2HPO4/NaH2PO4 (0.02 M) and NaCl (0.006 M) at pH 6.9 and then brined up to 10 ml using VF (10 ml). The acarbose was considered a reference and was established following the same previous steps used for the synthesized molecules.
A starch solution with a concentration of 1% (w/v) was prepared by suspending 1000 mg of starch in 100 ml of distilled water using V.F (100 ml), and then it was kept in a water bath at 37 °C until use, with occasional mixing to prevent starch precipitation. DNSA was used as a reactive reagent to react with reducing sugars to produce 3-amino-5- nitro salicylic acid that is highly absorbent of light at about 540 nm. It was prepared by dissolving 12 g of sodium potassium tartrate tetrahydrate in 8.0 ml of 2 M NaOH (8 g in 100 ml distill. water) then further dissolved in 20 ml of 96 mm of 3.5-dinitrosalicylic acid solution.
Then, 200 μl of the amylase solution (2 units/ml) was gently shaken with 200 μl of each of the VOs established working solutions, and then this was incubated at 37 °C for 10 min. Then 200 μl of the starch solution was added to each test tube, and there was further incubation for 3 min at 37 °C. The addition of 200 μl DNSA terminated the reaction and then boiling for 10 min at 85 to 90 °C. The mixture was then cooled to room temperature and diluted with 5 ml of distilled water, and the absorbance was recorded at 540 nm using a UV–Visible spectrophotometer. Replacement of the synthesized compounds with 200 μl of buffer was established to obtain the blank sample. In this protocol, acarbose was the positive control sample.

IC50 [1] [µM]	IC50 [2] [µM]	IC50 (µg/ml) Lipase [1] [µg/mL]	α-amylase inhibitory activity in words [2]	IC50 (µg/ml) α-amylase [2]	Structure (SMILES)	potency relative to acarbose, α-amylase [2]
437	7.57	–	–	–	COC(=O)Cc1cc2c(cc1C(=O)c1ccccc1Cl)OCO2 [3a]	–
–	–	> 400	lowest activity	61.45 ± 1.5 µg/mL (≈ 206 µM)	COC(=O)Cc1cc2c(cc1C(=O)c1ccccc1)OCO2 [3b]	–
–	–	> 400	–	39.85 ± 1.3 µg/mL (≈ 93.9 µM)	COC(=O)Cc1cc2c(cc1C(=O)c1ccccc1I)OCO2 [3c]	–
–	–	118.86 ± 2.1 (≈ 280 µM)	–	16.36 ± 0.75 µg/mL (≈ 38.6 µM)	COC(=O)Cc1cc2c(cc1C(=O)c1cccc(I)c1)OCO2 [3d]	–
–	–	78.37 ± 1.72 (≈ 208 µM)	–	2.57 ± 0.90 µg/mL (≈ 6.81 µM)	COC(=O)Cc1cc2c(cc1C(=O)c1ccccc1Br)OCO2 [3e]	–
–	–	> 400	–	9.29 ± 1.4 µg/mL (≈ 24.6 µM)	COC(=O)Cc1cc2c(cc1C(=O)c1cccc(Br)c1)OCO2 [3f]	–
–	–	225.8 ± 1.43 (≈ 622 µM)	–	4.90 ± 2.21 µg/mL (≈ 13.5 µM)	O=C(O)Cc1cc2c(cc1C(=O)c1cccc(Br)c1)OCO2 [4 g]	–
–	–	> 400	–	8.88 ± 2.10 µg/mL (≈ 27.9 µM)	O=C(O)Cc1cc2c(cc1C(=O)c1ccccc1Cl)OCO2 [4a]	–
–	–	> 400	–	1.25 ± 1.01 µg/mL (≈ 3.92 µM)	O=C(O)Cc1cc2c(cc1C(=O)c1cccc(Cl)c1)OCO2 [4b]	five to six folds more potent than acarbose
–	–	213.82 ± 2.1 (≈ 752 µM)	–	4.12 ± 1.63 µg/mL (≈ 14.5 µM)	O=C(O)Cc1cc2c(cc1C(=O)c1ccccc1)OCO2 [4c]	–
–	–	187.7 ± 1.23 (≈ 458 µM)	–	7.95 ± 1.15 µg/mL (≈ 19.4 µM)	O=C(O)Cc1cc2c(cc1C(=O)c1ccccc1I)OCO2 [4d]	–
–	–	201.2 ± 2.37 (≈ 491 µM)	–	3.85 ± 0.98 µg/mL (≈ 9.39 µM)	O=C(O)Cc1cc2c(cc1C(=O)c1cccc(I)c1)OCO2 [4e]	–
800	3.06	–	–	–	O=C(O)Cc1cc2c(cc1C(=O)c1ccccc1Br)OCO2 [4f]	five to six folds more potent than acarbose
–	–	44.47 ± 2.30 (≈ 148 µM)	–	8.54 µg/mL and 8.547 ± 1.55 µg/mL	COc1ccc(NC(=O)c2ccc3c(c2)OCO3)cc1OC [6a]	–
335	14.2	–	–	–	COc1cc(NC(=O)c2ccc3c(c2)OCO3)cc(OC)c1 [6b]	–
